Data reported in US8648083B2, “Method of treating diabetic hyperlipidemia or hyperlipidemia with carbamoyloxy arylalkanoyl arylpiperazine compounds” (SK Biopharmaceuticals Co., Ltd., priority 2010, dated 2014).
Counter-ions that a name gives are not always drawn.

Assays:
[1] = target: T1, rabbit reticulocyte cells-induced 15-lipoxygenase (Oryctolagus cuniculus, UniProt P12530); experiment: In-vitro test on inhibitory effect on 15-lipoxygenase (13-HPODE formation, absorbance 660 nm); type: biochemical; conditions: compound 10 uM; 260 μM linolenic acid; 4° C.; PBS pH 7.4; read-out: 15-lipoxygenase Inhibitory level at 10 uM (%)
T1 construct: rabbit reticulocyte cells-induced 15-lipoxygenase as a test group; from tissue; host or cells: rabbit reticulocytes
T1 sequence (P12530 1-663): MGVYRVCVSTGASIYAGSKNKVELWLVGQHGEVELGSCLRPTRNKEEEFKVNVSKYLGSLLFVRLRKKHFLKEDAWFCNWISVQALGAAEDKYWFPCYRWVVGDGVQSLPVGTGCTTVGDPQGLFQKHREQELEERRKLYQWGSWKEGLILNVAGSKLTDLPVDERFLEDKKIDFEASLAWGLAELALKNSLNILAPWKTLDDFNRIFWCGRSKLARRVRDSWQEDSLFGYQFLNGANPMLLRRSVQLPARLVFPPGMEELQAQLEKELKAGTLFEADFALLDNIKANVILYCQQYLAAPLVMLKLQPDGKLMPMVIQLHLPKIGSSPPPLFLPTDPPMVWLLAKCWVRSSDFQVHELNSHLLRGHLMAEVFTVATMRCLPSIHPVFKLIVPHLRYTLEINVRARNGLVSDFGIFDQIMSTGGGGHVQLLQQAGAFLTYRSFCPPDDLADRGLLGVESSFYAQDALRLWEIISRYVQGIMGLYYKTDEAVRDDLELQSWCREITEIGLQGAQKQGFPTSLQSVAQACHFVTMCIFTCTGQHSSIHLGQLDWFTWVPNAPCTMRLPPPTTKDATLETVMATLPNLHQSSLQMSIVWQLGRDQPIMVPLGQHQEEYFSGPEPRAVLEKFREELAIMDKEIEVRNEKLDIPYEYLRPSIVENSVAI
Procedure: (§1) 12-lipoxygenase reacts with arachidonate as a substrate to produce 12-hydroxyeicosatetrenoate (12-HETE) as a product. Accordingly, 12-lipoxygenase activity is evaluated by measuring an amount of generated 12-HETE by spectrometry. Also, 15-lipoxygenase reacts with a linolenic acid as a substrate to produce 13-hydroperoxy-9,11-octadecadienoic acid (13-HPODE) as a product. Accordingly, 15-lipoxygenase activity is evaluated by measuring an amount of generated 13-HPODE by spectrometry.
15-lipoxygenase activity was measured when a concentration of each of the compounds was 10 μM. Each sample was pretreated by using a buffer solution buffer solution (phosphate buffered saline buffer, pH 7.4) at a temperature of 4° C. for 15 minutes, and then 260 μM linolenic acid (a concentration thereof was controlled to be 260 μM during reaction) was added and reacted at a temperature of 4° C. for 10 minutes, and an amount of 13-HPODE as a generated product was measured by absorbance at a wavelength of 660 nm.

[2] = target: T2, human platelet-induced 12-lipoxygenase (Homo sapiens, UniProt P18054); experiment: In-vitro test on inhibitory effect on 12-lipoxygenase (12-HETE formation, absorbance 570 nm); type: biochemical; conditions: compound 10 uM; 30 μM arachidonate; 25° C.; Tris-HCl pH 7.4; read-out: 12-lipoxygenase Inhibitory level at 10 uM (%)
T2 construct: human platelet-induced 12-lipoxygenase as a negative control; from tissue; host or cells: human platelets
T2 sequence (P18054 1-663): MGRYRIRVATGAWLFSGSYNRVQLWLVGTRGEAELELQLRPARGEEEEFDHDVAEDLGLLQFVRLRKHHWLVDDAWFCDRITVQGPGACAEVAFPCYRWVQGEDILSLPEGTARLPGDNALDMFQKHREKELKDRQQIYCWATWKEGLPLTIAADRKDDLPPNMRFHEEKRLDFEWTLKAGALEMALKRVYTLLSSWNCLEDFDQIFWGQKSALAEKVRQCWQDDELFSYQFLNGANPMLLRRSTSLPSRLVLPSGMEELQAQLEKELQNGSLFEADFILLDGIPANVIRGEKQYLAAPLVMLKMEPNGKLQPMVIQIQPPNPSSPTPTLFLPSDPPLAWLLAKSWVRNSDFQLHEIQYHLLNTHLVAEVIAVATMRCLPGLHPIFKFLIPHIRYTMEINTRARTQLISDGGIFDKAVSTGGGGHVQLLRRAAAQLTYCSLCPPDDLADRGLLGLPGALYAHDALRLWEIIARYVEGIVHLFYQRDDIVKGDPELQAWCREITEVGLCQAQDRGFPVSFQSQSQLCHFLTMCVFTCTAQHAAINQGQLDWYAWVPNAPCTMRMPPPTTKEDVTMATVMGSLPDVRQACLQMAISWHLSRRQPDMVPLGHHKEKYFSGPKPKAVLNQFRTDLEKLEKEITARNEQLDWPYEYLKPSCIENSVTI
Procedure: as §1
12-lipoxygenase activity was measured when a concentration of each of the compounds was 10 μM. Each sample was pretreated by using a buffer solution (50 mM Tris-HCl, 0.1% Triton X-100, pH 7.4) at a temperature of 25° C. for 15 minutes and then, 30 μM arachidonate (a concentration thereof was controlled to be 30 μM during reaction) was added thereto and reacted at a temperature of 25° C. for 15 minutes, and an amount of 12-HETE as a generated product was measured by absorbance at a wavelength of 570 nm.

PAI-1 = experiment: Pharmaceutical effect test on inflammatory reaction in diabetic nephropathy model: PAI-1 mRNA in renal cortex; type: in vivo, rat; conditions: streptozotocin-diabetic rats; 200 mg/kg orally once a day for 4 weeks; untreated diabetic 1.8±0.1 times control
fibronectin = experiment: Pharmaceutical effect test on diabetic nephropathy: fibronectin expression in renal cortex by real-time RT-PCR; type: in vivo, rat; conditions: streptozotocin-diabetic rats; 200 mg/kg orally once a day for 4 weeks; untreated diabetic 1.4±0.1 times control
Procedure: Sprague-Dawley rats (n=21, 4 weeks, male) were used as lab models (Central Lab. Animal Inc.). Rats (n=14) having diabetes induced by intraperitoneal administration of 50 mg/kg of streptozotocin were used as a test group, and rats (n=7) intraperitoneally administered with only a solvent (100 mM citric acid buffer solution, pH 4.5) were used as a control. Typically, in rats having diabetes induced by streptozotocin, diabetic nephropathy is induced by hyperglycemia, and one of the symptoms is renal fibrosis, and gene expression of an extracellular matrix protein such as fibronectin is increased. 2 days after the administration of streptozotocin, diabetes was induced in the test group. […]
After the 4-week administration of the compound and PEG, renal cortex tissues were extracted from each of the groups and then, an expression level of fibronectin was measured by a real-time reverse transcription polymerase chain reaction (that is, an amount of mRNA transcribed from fibronectin) (see FIG. 3). The expression level of fibronectin was measured by using a forward primer (5′-[…]-3′; SEQ ID NO: 1) and a reverse primer (5′-[…]-3′; SEQ ID NO: 2). […] For the control, mRNA transcribed from a beta actin gene was used, and measurement results were indicated by dividing an amount of mRNA of fibronectin quantified from the RT-PCT results by an amount of mRNA of beta actin. […]

MCP-1 = experiment: Pharmaceutical effect test on inflammatory reaction in diabetic nephropathy model: MCP-1 mRNA in renal cortex; type: in vivo, rat; conditions: streptozotocin-diabetic rats; 200 mg/kg orally once a day for 4 weeks; untreated diabetic 3.4±1.0 times control
[3] = test system: Sprague-Dawley rats having diabetes induced by streptozotocin; experiment: Pharmaceutical effect test on diabetic hyperlipidemia in diabetes animal model (streptozotocin); type: in vivo, rat; conditions: 200 mg/kg orally once a day for four weeks
Procedure: Sprague-Dawley rats (n=21, 4 weeks, male) were used as lab models (Central Lab. Animal Inc.). Rats (n=14) having diabetes induced by intraperitoneal administration of 50 mg/kg of streptozotocin were used as a test group, and rats (n=7) intraperitoneally administered with only a solvent (100 mM citric acid buffer solution, pH 4.5) were used as a control. Typically, streptozotocin destroys beta cells of the pancreas to induce diabetes, and thus, blood sugar is increased and amounts of cholesterol and triglycerides in serum are increased. 2 days after the administration of streptozotocin, diabetes was induced in the test group. The test group was divided into two groups, and rats of one group were orally administered once a day with 200 mg/kg of (R)-carbamic acid 3-[4-(3,4-dimethoxy-phenyl)-piperazine-1-yl]-3-oxo-1-phenyl-propyl ester for four weeks. The other group was orally administered with 30% polyethylene glycol (PEG) instead of the compound.
After the 4-week administration of the compound and PEG, amounts of total cholesterol and triglycerides in serum of each of the groups were measured and results thereof are shown in FIGS. 1 and 2. In order to measure the amounts of total cholesterol and triglycerides, serum was isolated from the rats and a Hitachi 7600 auto-analyzer was used.

TGF-β1 = experiment: Pharmaceutical effect test on inflammatory reaction in diabetic nephropathy model: TGF-β1 mRNA in renal cortex; type: in vivo, rat; conditions: streptozotocin-diabetic rats; 200 mg/kg orally once a day for 4 weeks; untreated diabetic 1.6±0.2 times control

Row | inhibition at 10 µM [1] [%] | inhibition at 10 µM [2] [%] | Compound | further results
1 | 73 | 10 | COc1ccc(N2CCN(C(=O)CC(OC(N)=O)c3ccccc3)CC2)cc1OC (centres unmarked) [Example 1, carbamic acid 3-[4-(3,4-dimethoxy-phenyl)-piperazine-1-yl]-3-oxo-1-phenyl-propyl ester] | 
2 | 69 | -5 | COc1ccc(N2CCN(C(=O)CC(OC(N)=O)c3ccc(F)cc3)CC2)cc1OC (centres unmarked) [Example 2, carbamic acid 3-[4-(3,4-dimethoxy-phenyl)-piperazine-1-yl]-1-(4-fluoro-phenyl)-3-oxo-propyl ester] | 
3 | 85 | -8 | NC(=O)OC(CC(=O)N1CCN(c2ccc3c(c2)OCO3)CC1)c1ccccc1 (centres unmarked) [Example 3, carbamic acid 3-(4-benzo[1,3]dioxol-5-yl-piperazine-1-yl)-3-oxo-1-phenyl-propyl ester] | 
4 | 48 | 0 | COc1ccc(N2CCN(C(=O)CC(OC(N)=O)c3ccc(C(F)(F)F)cc3)CC2)cc1OC (centres unmarked) [Example 4, carbamic acid 3-[4-(3,4-dimethoxy-phenyl)-piperazine-1-yl]-1-(4-trifluoromethyl-phenyl)-3-oxo-propyl ester; hydrochloride] | 
5 | 75 | 0 | COc1ccc(N2CCN(C(=O)CC(OC(N)=O)c3ccc([N+](=O)[O-])cc3)CC2)cc1OC (centres unmarked) [Example 5, carbamic acid 3-[4-(3,4-dimethoxy-phenyl)-piperazine-1-yl]-1-(4-nitro-phenyl)-3-oxo-propyl ester] | 
6 | 114 | 11 | NC(=O)O[C@H](CC(=O)N1CCN(c2ccc(Cl)cc2)CC1)c1ccccc1 [Example 6, (R)-carbamic acid 3-[4-(4-chloro-phenyl)-piperazine-1-yl]-3-oxo-1-phenyl-propyl ester] | 
7 | 69 | 2 | COc1ccc(N2CCN(C(=O)C[C@H](OC(N)=O)c3ccccc3)CC2)cc1OC [Example 7, (S)-carbamic acid 3-[4-(3,4-dimethoxy-phenyl)-piperazine-1-yl]-3-oxo-1-phenyl-propyl ester] | 
8 | 79 | 15 | COc1ccc(N2CCN(C(=O)C[C@@H](OC(N)=O)c3ccccc3)CC2)cc1OC [Example 8, (R)-carbamic acid 3-[4-(3,4-dimethoxy-phenyl)-piperazine-1-yl]-3-oxo-1-phenyl-propyl ester] | expression level of PAI-1 gene in the renal cortex relative to control (PAI-1): 1.1±0.2 times; expression level of fibronectin of the renal cortex (mRNA / beta actin mRNA) relative to control (fibronectin): 1.2±0.1 times; expression level of MCP-1 gene in the renal cortex relative to control (MCP-1): 1.6±0.3 times; concentration of total cholesterol in serum ([3]; untreated diabetic 120±13, control 62±5 mg/dl): 66 ± 9 mg/dL; concentration of triglyceride in serum ([3]; untreated diabetic 760±162 mg/dl): 126 ± 44 mg/dL; expression level of TGF-β1 gene in the renal cortex relative to control (TGF-β1): 1.3±0.2 times
9 | 62 | 0 | COc1ccc(N2CCN(C(C)CC(OC(N)=O)c3ccccc3)CC2)cc1OC (centres unmarked) [Example 9, carbamic acid 3-[4-(3,4-dimethoxy-phenyl)-piperazine-1-yl]-1-phenyl-butyl ester] | 
10 | 72 | 7 | COc1ccc(N2CCN(C(=O)CC(OC(N)=O)c3ccc(Cl)cc3)CC2)cc1OC (centres unmarked) [Example 10, carbamic acid 3-[4-(3,4-dimethoxy-phenyl)-piperazine-1-yl]-1-(4-chloro-phenyl)-3-oxo-propyl ester] | 
